Reference: patent publication US6825178B1, “Methods and products for treating pseudomonas infection” (The Brigham and Women's Hospital, Inc., priority 1996, dated 2004)
Marks after values point to notes of the source that are not given here.

How the values were obtained:
[1] = tested on: transformed human airway epithelial cells (CFT1-LCFSN line); assay: Inhibition of internalization of P. aeruginosa strain PAO1 into CFT1-LCFSN cells (bacterial ingestion assay); type: cell-based; settings: strain PAO1, CFT1-LCFSN cells
From the text: Cell lines. CFT1-LCFSN cells, carrying a retrovirally introduced chromosomal copy of the wild-type human CFTR gene were kindly provided by J. Olsen, J. Yankaskis and L. Johnson from The University of North Carolina, Chapel Hill, N.C.. The cell line parental to CFT1-LCFSN is designated CFT1; it is a line of human papilloma virus 18 E6/E7 transformed bronchial epithelial cells derived from a CF patient homozygous for ΔF508 CFTR. The CFT1-LCFSN cells have normal chloride ion conductance. CFT1-ΔF508 cells are derived from CFT1 cells and carry a cDNA introduced by a retrovirus vector that encodes the ΔF508 mutant form of CFTR. Cells were grown in supplemented F-12 medium as described in 5% CO2 at 37° C.
Bacterial strains. P. aeruginosa strains used include PAO1, a well-characterized laboratory strain, and strains 149 and 324, non-mucoid, LPS-smooth clinical isolates of P. aeruginosa from CF patients early in the course of infection. Fresh cultures of P. aeruginosa grown overnight at 37° C. on a tryptic soy agar plate were suspended in supplemented medium to prepare the bacterial inoculum. Approximately 10^6 cfu of the bacterial inoculum were added per well of 10^5, epithelial cells.
Reagents for inhibition of ingestion assays. Membranes were prepared from C127 cells as described by O'Riordan et al.. Membranes were suspended in 150 mM NaCl, 50 mM Tris, pH 7.5 and 1 mM EDTA and added at the indicated concentration to suspensions of P. aeruginosa strains prior to adding this mixture to CFT1-LCFSN cells to measure bacterial uptake. Membranes from CEM/VbI cells expressing P-glycoprotein and membranes from control CEM cells lacking P-glycoprotein were obtained from James Croop of Harvard Medical School. Purified (˜85%) recombinant CFTR was obtained from Genzyme Corp., and prepared as described. The protein was solubilized in 100 mM NaCl, 10 mM Tris, pH 8.0, 2 mM di-thio-threitol and 0.1% sodium dodecyl sulfate. Monoclonal antibodies raised to synthetic peptides corresponding to the first (MAb CF3) and fourth (MAb CF4) predicted extracellular domains of CFTR, as well as a MAb specific to a peptide representing the carboxy-terminal 14 amino acids of mature CFTR (MAb CF2) were provided by Dr. George Banting, University of Bristol, Bristol, UK [12]. Synthetic peptides were obtained from Chiron Mimetopes, San Diego, Calif. Peptide […] (15 amino acids) (SEQ.ID.NO. 3) represents amino acids 103-117 of mature CFTR, peptide […] (31 amino acids) (SEQ.ID.NO. 4) represents amino acids 881-911 of mature CFTR. Peptides were made up as a stock solution in F-12 medium containing 1 μM/μl based on the purity reported by the manufacturer. Peptides were diluted in F-12 tissue culture medium prior to use in assays.
Bacterial ingestion assay. Cells were released from monolayers in tissue culture flasks by 5 min. of incubation with trypsin-versene mixture (BioWhitaker, Walkersville, Md.), washed, counted and seeded into 96-well tissue culture plates at 10^5 cells/well in supplemented F-12 medium and incubated at 37° C. in 5% CO2. Fresh cultures of P. aeruginosa grown overnight at 37° C. on a tryptic soy agar plate were suspended in supplemented F-12 medium to prepare the bacterial inoculum. Then 10^6 colony forming units (cfu) of the bacterial inoculum were added per well of 10^5 epithelial cells. Bacteria were allowed to invade the epithelial cells for 3 to 4 hours at 37° C., after which nonadherent bacteria were removed by washing. The remaining steps of the assay and the steps involved in the controls have previously been described. Three to 9 replicates were obtained per point, and analyzed using analysis of variance (ANOVA) and the Fisher PLSD statistic to determine pairwise differences. […]

A549 cells = assay: Inhibition of internalization of P. aeruginosa strain PAO1 into A549 cells; type: cell-based, human; settings: 1 nM peptide
Protocol: WI-38 (human diploid lung cell line, ATCC. no. CCL-75) and A549 cells (human lung carcinoma cells, ATCC no. CCL-185) were obtained from the ATCC and grown according to their instructions.
Bacterial ingestion assay. Cells were released from monolayers in tissue culture flasks by 5 min. of incubation with trypsin-versene mixture (BioWhitaker, Walkersville, Md.), washed, counted and seeded into 96-well tissue culture plates at 10^5 cells/well in supplemented F-12 medium and incubated at 37° C. in 5% CO2. Fresh cultures of P. aeruginosa grown overnight at 37° C. on a tryptic soy agar plate were suspended in supplemented F-12 medium to prepare the bacterial inoculum. Then 10^6 colony forming units (cfu) of the bacterial inoculum were added per well of 10^5 epithelial cells. […] Three to 9 replicates were obtained per point, and analyzed using analysis of variance (ANOVA) and the Fisher PLSD statistic to determine pairwise differences.
Inhibition of ingestion in the presence of membranes isolated from C127 cells, monoclonal antibodies to extracellular domains of CFTR, or synthetic peptides corresponding to the first or fourth extracellular domains of CFTR was evaluated by adding these materials to the bacteria prior to adding them directly into wells for evaluation of bacterial uptake. […]

Sequence	Mean cfu of P. aeruginosa internalized (standard deviation) ([1]; 0.001 nanomoles peptide)	Mean cfu of P. aeruginosa internalized (standard deviation) ([1]; 0.01 nanomoles peptide)	Mean cfu of P. aeruginosa internalized (standard deviation) ([1]; 0.1 nanomoles peptide)	Mean cfu of P. aeruginosa internalized (standard deviation) ([1]; 1 nanomoles peptide)	Mean cfu (standard deviation) of P. aeruginosa internalized (A549 cells)
GRIIASYDPDNKEER (listed as Homo Sapiens) [First domain]	5.533 × 10^4 (5.2986 × 10^3) cfu	3.482 × 10^4 (3.8473 × 10^3)^a cfu	2.513 × 10^4 (1.6609 × 10^3)^a cfu	2.383 × 10^4 (4.6207 × 10^3)^a cfu	3.2833 × 10^4 (4.32 × 10^3)^a cfu
LWLLGNTPLQDKGNSTHSRNNSYAVIITSTS (listed as Homo Sapiens) [Fourth domain, reference compound]	6.978 × 10^4 (5.4745 × 10^3) cfu	7.23 × 10^4 (3.6721 × 10^3) cfu	7.488 × 10^4 (5.0653 × 10^3) cfu	8.708 × 10^4 (4.0519 × 10^3) cfu	8.7333 × 10^4 (1.1506 × 10^4) cfu
